This note sets out measurements from patent US10130633B2, “Compounds” (BAYER PHARMA AKTIENGESELLSCHAFT, priority 2013, dated 2018).

Where a name gives a salt, the structure may show the parent alone.

Assay [1] relates to HCT116 FOP control reporter cell line. Nature of the assay: HCT116 FOPFlash control reporter assay (FOP control vector, non-functional TCF elements). The note with it: HCT116 FOP control reporter cells, 36 hours incubation, luciferase expression. Format: cell-based. An excerpt:
In a parallel approach, HCT116 cells were cotransfected with the FOP control vector and pcDNA3. The FOP vector is identical to the TOP construct, but it contains instead of functional TCF elements a randomized, non-functional sequence. For this transfection a stable transfected cell line was generated as well.

Assay [2] concerns constitutive active colorectal cancer cell (CRC) Wnt pathway. As to the kind of experiment: HCT116 TOPFlash cellular reporter assay (Super TopFlash luciferase), constitutive active Wnt pathway. The format is cell-based. As to conditions: HCT116 TOP reporter cells, 36 hours incubation, luciferase expression. The method, then:
In order to discover and characterize small molecules which inhibit the constitutive active colorectal cancer cell (CRC) Wnt pathway, a cellular reporter assay was employed. […] Stable transfectants were generated by cotransfection with pcDNA3 and selection of stable transfected cells with 1 mg/ml G418.
In general terms: In a reporter assay the amount or activity of a reporter protein is the signal.

As a reminder, the IC50 is the concentration at which inhibition is half-maximal.

As to `O=C(CN1CC2CCC(C1)O2)Nc1cc(NC(=O)c2ccc(-c3cc(F)cc(F)c3)nc2)ccc1OC(F)(F)F` [Example 216, 6-(3,5-difluorophenyl)-N-{3-[(8-oxa-3-azabicyclo[3.2.1]oct-3-ylacetyl)amino]-4-(trifluoromethoxy)phenyl} nicotinamide], the IC50 in assay [1] (Homo sapiens, HCT-116, 36 h) turned out to be 3600 nM; in assay [2] (Homo sapiens, HCT-116, 36 h), 260 nM.
Turning to `CC(C(=O)Nc1cc(C(=O)Nc2ccc(-c3cc(F)cc(F)c3)nc2)ccc1OC(F)(F)F)N1CC2CCC(C1)O2` (stereo not drawn) [Example 178, N-[6-(3,5-difluorophenyl)pyridin-3-yl]-3-{[2-(8-oxa-3-azabicyclo[3.2.1]oct-3-yl)propanoyl]amino}-4-(trifluoromethoxy)benzamide], the IC50 in assay [1] was 3800 nM; in assay [2], 42.4 nM.
As to `CN(C(=O)CN1CCOCC1)c1cc(C(=O)Nc2ccc(-c3ccccc3)nc2)ccc1OC(F)(F)F` [Example 228, 3-[methyl(morpholin-4-ylacetyl)amino]-N-(6-phenylpyridin-3-yl)-4-(trifluoromethoxy)benzamide], the IC50 in assay [1] (Homo sapiens, HCT-116, 36 h) came out at 29000 nM; in assay [2] (Homo sapiens, HCT-116, 36 h), 2870 nM.
In the case of `CC(C(=O)Nc1cc(NC(=O)c2ccc(-c3cc(F)cc(F)c3)nc2)ccc1OC(F)(F)F)N1CCOCC1` (stereo not drawn) [Example 187, 6-(3,5-difluorophenyl)-N-[3-{[2-(morpholin-4-yl)propanoyl]amino}-4-(trifluoromethoxy)phenyl] nicotinamide], the IC50 in assay [1] turned out to be 42000 nM; in assay [2] (Homo sapiens, HCT-116, 36 h), 175 nM.
In the case of `COCCN(C)C1(C(=O)Nc2cc(C(=O)Nc3nnc(-c4ccccc4)s3)ccc2OC(F)(F)F)CC1` [Example 261, 3-[({1-[(2-methoxyethyl)(methyl)amino]cyclopropyl}carbonyl)amino]-N-(5-phenyl-1,3,4-thiadiazol-2-yl)-4-(trifluoromethoxy)benzamide], the IC50 in assay [1] (Homo sapiens, HCT-116, 36 h) was at least 50000 nM; in assay [2] (Homo sapiens, HCT-116, 36 h), 150 nM.
For `CN(C)C1(C(=O)Nc2cc(C(=O)Nc3ccc(-c4cc(F)cc(F)c4)nc3)ccc2OC(F)(F)F)CC1` [Example 251, N-[6-(3,5-difluorophenyl)pyridin-3-yl]-3-({[1-(dimethylamino)cyclopropyl]carbonyl}amino)-4-(trifluoromethoxy)benzamide] the same measures were 16000 nM and 220 nM.
`COc1ccccc1-c1nnc(NC(=O)c2ccc(OC(F)(F)F)c(NC(=O)CN3CCN(C)CC3)c2)s1` [Example 101, N-[5-(2-methoxyphenyl)-1,3,4-thiadiazol-2-yl]-3-{[(4-methylpiperazin-1-yl)acetyl]amino}-4-(trifluoromethoxy)benzamide]: the IC50 was at least 50000 nM in assay [1] (Homo sapiens, HCT-116, 36 h) and 3200 nM in assay [2] (Homo sapiens, HCT-116, 36 h).
With `CN1CCN(CC(=O)Nc2cc(C(=O)Nc3nnc(-c4cccc(F)c4)s3)ccc2OC(F)(F)F)CC1` [Example 152, N-[5-(3-fluorophenyl)-1,3,4-thiadiazol-2-yl]-3-{[(4-methylpiperazin-1-yl)acetyl]amino}-4-(trifluoromethoxy)benzamide], the IC50 is at least 50000 nM in assay [1] (Homo sapiens, HCT-116, 36 h) and 200 nM in assay [2] (Homo sapiens, HCT-116, 36 h).
Taken in the same sequence, the figures for `COCc1ccc(C(=O)Nc2nnc(-c3ccccc3C)s2)cc1NC(=O)CN1CCOCC1` [Example 176, 4-(methoxymethyl)-N-[5-(2-methylphenyl)-1,3,4-thiadiazol-2-yl]-3-[(morpholin-4-ylacetyl)amino]benzamide] were at least 50000 nM and 315 nM.
Taken in the same sequence, the figures for `CC1CN(CC(=O)Nc2cc(C(=O)Nc3ccc(-c4ccccc4F)nc3)ccc2OC(F)(F)F)CCN1C` (stereo not drawn) [Example 137, 3-{[(3,4-dimethylpiperazin-1-yl)acetyl]amino}-N-[6-(2-fluorophenyl)pyridin-3-yl]-4-(trifluoromethoxy)benzamide] were 20000 nM and 272 nM.
As for `CC(C(=O)Nc1cc(NC(=O)c2ccc(-c3ccccc3F)nc2)ccc1OC(F)(F)F)N1CC2CCC(C1)O2` (stereo not drawn) [Example 205, 6-(2-fluorophenyl)-N-[3-{[2-(8-oxa-3-azabicyclo[3.2.1]oct-3-yl)propanoyl]amino}-4-(trifluoromethoxy)phenyl] nicotinamide], the IC50 in assay [1] stood at 18200 nM; in assay [2], 20.2 nM.
Take `CCN1CCN(CC(=O)Nc2cc(C(=O)Nc3nnc(-c4ccccc4)s3)ccc2OC(F)(F)F)CC1` [Example 172, 3-{[(4-ethylpiperazin-1-yl)acetyl]amino}-N-(5-phenyl-1,3,4-thiadiazol-2-yl)-4-(trifluoromethoxy)benzamide]: the half-inhibitory concentration (IC50) in assay [1] (Homo sapiens, HCT-116, 36 h) was at least 50000 nM; in assay [2] (Homo sapiens, HCT-116, 36 h), 855 nM.
For `Cc1ccccc1-c1nnc(NC(=O)c2ccc(OC3CC3)c(NC(=O)CN3CCN(C)CC3)c2)s1` [Example 264, 4-(cyclopropyloxy)-N-[5-(2-methylphenyl)-1,3,4-thiadiazol-2-yl]-3-{[(4-methylpiperazin-1-yl)acetyl]amino}benzamide] the same measures were at least 50000 nM and 255 nM.
`CC(C(=O)Nc1cc(C(=O)Nc2ccc(-c3ccccc3F)nc2)ccc1OC(F)(F)F)N1CCN(C2CC2)CC1` (stereo not drawn) [Example 249, 3-{[2-(4-cyclopropylpiperazin-1-yl)propanoyl]amino}-N-[6-(2-fluorophenyl)pyridin-3-yl]-4-(trifluoromethoxy)benzamide]: the IC50 in assay [1] worked out at 38000 nM; in assay [2], 198 nM.
Take `Cc1ccc(C(=O)Nc2nnc(-c3ccccc3)s2)cc1NC(=O)C1(N2CCOCC2)CC1` [Example 103, 4-methyl-3-({[1-(morpholin-4-yl)cyclopropyl]carbonyl}amino)-N-(5-phenyl-1,3,4-thiadiazol-2-yl)benzamide]: the IC50 turned out to be 21000 nM in assay [1] (Homo sapiens, HCT-116, 36 h) and 752 nM in assay [2] (Homo sapiens, HCT-116, 36 h).
With `Cc1ccc(C(=O)Nc2nnc(-c3ccccc3)s2)cc1NC(=O)C1(N2CCN(C)CC2)CC1` [Example 157, 4-methyl-3-({[1-(4-methylpiperazin-1-yl)cyclopropyl]carbonyl}amino)-N-(5-phenyl-1,3,4-thiadiazol-2-yl)benzamide hydrochloride (1:1)], the IC50 was at least 50000 nM in assay [1] (Homo sapiens, HCT-116, 36 h) and 96.6 nM in assay [2] (Homo sapiens, HCT-116, 36 h).
Taken in the same sequence, the figures for `CC(C(=O)Nc1cc(C(=O)Nc2ccc(-c3ccccc3F)nc2)ccc1C(C)(C)C)N1CCOCC1` (stereo not drawn) [Example 142, 4-tert-butyl-N-[6-(2-fluorophenyl)pyridin-3-yl]-3-{[2-(morpholin-4-yl)propanoyl]amino}benzamide] were 7150 nM and 118 nM.
Taken in the same sequence, the figures for `CN1CCN(CC(=O)Nc2cc(C(=O)Nc3ccc(-c4ccccc4)cn3)ccc2OC(F)(F)F)CC1` [Example 158, 3-{[(4-methylpiperazin-1-yl)acetyl]amino}-N-(5-phenylpyridin-2-yl)-4-(trifluoromethoxy)benzamide] were 21800 nM and 73.6 nM.
Turning to `O=C(CN1CCOCC1)Nc1cc(C(=O)Nc2nnc(-c3ccc([N+](=O)[O-])cc3)s2)ccc1OC(F)(F)F` [Example 97, 3-[(morpholin-4-ylacetyl)amino]-N-[5-(4-nitrophenyl)-1,3,4-thiadiazol-2-yl]-4-(trifluoromethoxy)benzamide], the IC50 is at least 50000 nM in assay [1] (Homo sapiens, HCT-116, 36 h) and 1930 nM in assay [2] (Homo sapiens, HCT-116, 36 h).
For `CC(C(=O)Nc1cc(C(=O)Nc2ncc(-c3ccccc3)s2)ccc1C(C)(C)C)N1CCOCC1` (stereo not drawn) [Example 143, 4-tert-butyl-3-{[2-(morpholin-4-yl)propanoyl]amino}-N-(5-phenyl-1,3-thiazol-2-yl)benzamide] the same measures were at least 50000 nM and 204 nM.
Taken in the same sequence, the figures for `COc1ccc(NC(=O)c2ccc(-c3ccc(F)cc3)nc2)cc1NC(=O)CN1CCOCC1` [Example 229, 6-(4-fluorophenyl)-N-{4-methoxy-3-[(morpholin-4-ylacetyl)amino]phenyl} nicotinamide] were at least 50000 nM and 2300 nM.
For `COc1ccc(NC(=O)c2ccc(-c3ccccc3)nc2)cc1NC(=O)CN1CCOCC1` [Example 34, N-{4-methoxy-3-[(morpholin-4-ylacetyl)amino]phenyl}-6-phenylnicotinamide] the same measures were at least 50000 nM and 1220 nM.
Consider `O=C(CN1CCOCC1)Nc1cc(C(=O)Nc2nnc(-c3ccccc3)s2)ccc1OC(F)(F)F` [Example 55, 3-[(morpholin-4-ylacetyl)amino]-N-(5-phenyl-1,3,4-thiadiazol-2-yl)-4-(trifluoromethoxy)benzamide], for which the IC50 in assay [1] (Homo sapiens, HCT-116, 36 h) is at least 50000 nM; in assay [2] (Homo sapiens, HCT-116, 36 h), 150 nM.
`CC(C(=O)Nc1cc(C(=O)Nc2nnc(-c3ccccc3)s2)ccc1CS(C)(=O)=O)N1CCOCC1` (stereo not drawn) [Example 87, 4-[(methylsulfonyl)methyl]-3-{[2-(morpholin-4-yl)propanoyl]amino}-N-(5-phenyl-1,3,4-thiadiazol-2-yl)benzamide]: the IC50 was found to be 48000 nM in assay [1] (Homo sapiens, HCT-116, 36 h) and 858 nM in assay [2] (Homo sapiens, HCT-116, 36 h).
On to `CC(C(=O)Nc1cc(C(=O)Nc2ccc(-c3cc(F)cc(F)c3)nc2)ccc1OC(F)(F)F)N1CCOCC1` (stereo not drawn) [Example 246, N-[6-(3,5-difluorophenyl)pyridin-3-yl]-3-{[2-(morpholin-4-yl)propanoyl]amino}-4-(trifluoromethoxy)benzamide], for which the values for the IC50 in assay [1] and in assay [2] were 27800 nM and 47.5 nM, respectively.
Consider `CC(C)(C)c1ccc(NC(=O)c2ccc(-c3ccccc3)nc2)cc1NC(=O)CN1CCOCC1` [Example 18, N-{4-tert-butyl-3-[(morpholin-4-ylacetyl)amino]phenyl}-6-phenylnicotinamide], for which the IC50 in assay [1] (Homo sapiens, HCT-116, 36 h) is 9900 nM; in assay [2] (Homo sapiens, HCT-116, 36 h) it was 444 nM.
Turning to `CC(C(=O)Nc1cc(NC(=O)c2ccc(-c3cc(F)cc(F)c3)nc2)ccc1OC(F)(F)F)N1CC2CCC(C1)O2` (stereo not drawn) [Example 202, 6-(3,5-difluorophenyl)-N-[3-{[2-(8-oxa-3-azabicyclo[3.2.1]oct-3-yl)propanoyl]amino}-4-(trifluoromethoxy)phenyl] nicotinamide], the figures for the IC50 in assay [1] and in assay [2] were 5800 nM and 200 nM, respectively.
